Here are results for 11 compounds from patent US4188485A, “1-[(10,11-Dihydro-5H-dibenzo[a,d]-cyclohepten-5-yl)methyl]-4-substituted piperidines and related compounds” (G. D. Searle & Co., priority 1978, dated 1980).

For test [1], the target named is dopamine receptors (Bos taurus, UniProt P20288). Description: biochemical. It is filed as binding. The settings on record: 1.6 nM ^3 H-haloperidol, calf caudate membrane homogenate, 37° C., 10 minutes; non-specific binding with 10^-4 M dopamine.
Test [2] relates to dopamine receptors. Description: biochemical. It is filed as binding. The settings on record: ^3 H-Haloperidol and ^3 H-Spiroperidol versus ^3 H-dopamine sites; compared with clozapine and chloropromazine.
For test [3], the target named is dopamine receptors. Description: Receptor Binding Assay, displacement of ^3 H-Spiroperidol binding to calf caudate membranes. As to conditions: read-out: ^3 H-Spiroperidol (IC50); 0.15 nM ^3 H-Spiroperidol, calf caudate membrane homogenate, 37° C., 20 minutes; non-specific binding with 10^-5 M (+)-Butaclamol.
The target of test [4] is dopamine receptors. Description: Receptor Binding Assay, displacement of ^3 H-dopamine binding to calf caudate membranes. The settings on record: for IC50: read-out: ^3 H-Dopamine (IC50), calf caudate membrane homogenate, 37° C., 10 minutes, non-specific binding with 10^-5 M (+)-Butaclamol.

Sequence of dopamine receptors (Bos taurus, UniProt P20288) (P20288 whole entry): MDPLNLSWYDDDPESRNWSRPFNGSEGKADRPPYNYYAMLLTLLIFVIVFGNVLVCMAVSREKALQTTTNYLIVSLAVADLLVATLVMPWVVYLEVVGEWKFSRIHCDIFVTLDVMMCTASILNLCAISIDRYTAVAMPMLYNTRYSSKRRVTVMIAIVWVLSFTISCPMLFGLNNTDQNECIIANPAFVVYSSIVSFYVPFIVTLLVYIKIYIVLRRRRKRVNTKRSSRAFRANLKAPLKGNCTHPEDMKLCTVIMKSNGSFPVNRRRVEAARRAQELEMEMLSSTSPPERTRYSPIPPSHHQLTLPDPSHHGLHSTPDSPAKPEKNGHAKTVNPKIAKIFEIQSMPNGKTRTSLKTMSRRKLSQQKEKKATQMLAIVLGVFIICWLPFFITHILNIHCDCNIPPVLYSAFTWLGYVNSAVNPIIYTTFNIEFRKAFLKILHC

One may read the IC50 as the midpoint of a concentration-inhibition curve. On to `CC(C)(C)C1(O)CCN(CC2c3ccccc3Oc3ccccc32)CC1.Cl` [Compound F, 4-tert-butyl-1-(xanthen-9-ylmethyl)-4-piperidinol, hydrochloride], for which the IC50 in test [1] was 0.31 µM; in test [3] it was 5.9 µM; in test [4], 15 µM. For the same compound, the antagonist ratios entry in test [2] is “comparable to clozapine and chloropromazine”.
For `CC(C)(C)C1(O)CCN(CC2c3ccccc3C=Cc3ccccc32)CC1.Cl` [Compound D, 4-tert-butyl-1-[(5H-dibenzo[a,d]cyclohepten-5yl)methyl]-4-piperidinol, hydrochloride], the IC50 stood at 0.037 µM in test [1], 1.5 µM in test [3] and 7.2 µM in test [4]. Moreover, the antagonist ratios entry in test [2] is “comparable to clozapine and chloropromazine”.
In the case of `CC(C)(C)C1(O)CCN(CC2c3ccccc3CCc3ccc(Br)cc32)CC1.Cl` (stereo not shown) [Compound C, 4-tert-butyl-1-[(3-bromo-10,11-dihydro-5H-dibenzo[a,d]cyclohepten-5-yl)methyl]-4-piperidinol hydrochloride], the results for the concentration for half-maximal inhibition (IC50) in test [1], in test [3] and in test [4] were 0.28 µM, 0.22 µM and 1.7 µM, respectively. Further, the antagonist ratios entry in test [2] was “comparable to clozapine and chloropromazine”.
On to `CC(C)(C)C1(O)CCN(CC2c3ccccc3CCc3cc(Cl)ccc32)CC1` (stereo not shown) [Compound B], for which the values for the IC50 in test [1], in test [3] and in test [4] were 0.0075 µM, 0.27 µM and 0.88 µM, respectively. Further, in test [2], the antagonist ratios entry is “comparable to clozapine and chloropromazine”.
In turn, `O=C1CCN(CC(c2ccc(Cl)cc2)c2ccc(Cl)cc2)CC1C1(O)CCN(CC(c2ccc(Cl)cc2)c2ccc(Cl)cc2)CC1` (stereo not shown) [Compound K, 1-[2,2-bis(p-chlorophenyl)ethyl]-3-{1-[2,2-bis(p-chlorophenyl)ethyl]-4-hydroxypiperidin-4-yl}-4-piperidinone] yielded an IC50 in test [1] of 10 µM. Besides, in test [2], the antagonist ratios entry was “comparable to clozapine and chloropromazine”.
Take `CC(C)(C)C1(O)CCN(CC2c3ccccc3Sc3ccccc32)CC1.Cl` [Compound G, 4-tert-butyl-1-(thioxanthen-9-ylmethyl)-4-piperidinol, hydrochloride]: the IC50 in test [1] was determined as 0.29 µM; in test [3], 0.91 µM; in test [4], 4.5 µM. Further, the antagonist ratios result in test [2] is “comparable to clozapine and chloropromazine”.
In the case of `CC(C)(C)C1(O)CCN(CC(c2ccccc2)c2ccccc2)CC1` [Compound H, 4-tert-butyl-1-(2,2-diphenylethyl)-4-piperidinol], the results for the IC50 in test [1], in test [3] and in test [4] were 0.16 µM, 3.6 µM and 60 µM, respectively. The antagonist ratios result in test [2] was “comparable to clozapine and chloropromazine”.
With `OC1CCN(CC(c2ccccc2)c2ccccc2)CC1C1(O)CCN(CC(c2ccccc2)c2ccccc2)CC1` (stereo not shown) [Compound J, 1-(2,2-diphenylethyl)-3-[1-(2,2-phenylethyl)-4-hydroxypiperidin-4-yl]-4-piperidinol], the figures for the IC50 in test [1] and in test [4] were 0.09 µM and 25 µM, respectively. Further, the antagonist ratios entry in test [2] is “comparable to clozapine and chloropromazine”.
Turning to `CC(C)(C)C1(O)CCN(CC2c3ccccc3CCc3ccccc32)CC1` [Compound A], the IC50 in test [1] was 0.0024 µM; in test [3], 0.86 µM; in test [4], 15 µM. Further, the antagonist ratios result in test [2] was “comparable to clozapine and chloropromazine”.
In the case of `Cl.Cl.NC1CCN(CC2c3ccccc3CCc3ccccc32)CC1` [Compound E, 1-[(10,11-dihydro-5H-dibenzo[a,d]cyclohepten-5-yl)methyl]-4-piperidinamine, dihydrochloride], the results for the IC50 in test [1] and in test [3] were 2.5 µM and 30 µM, respectively. Further, the antagonist ratios result in test [2] is “comparable to clozapine and chloropromazine”. The “^3 H-Dopamine, % at 10^-4” value in test [4] (at 10^-4, calf caudate membrane homogenate, 37° C., 10 minutes, 100 µM) amounted to 27%.
As for `O=C1CCN(CC(c2ccccc2)c2ccccc2)CC1C1(O)CCN(CC(c2ccccc2)c2ccccc2)CC1` (stereo not shown) [Compound I, 1-(2,2-diphenylethyl)-3-[1-(2,2-diphenylethyl)-4-hydroxypiperidin-4-yl]-4-piperidinone], the IC50 turned out to be 0.5 µM in test [1] and 27 µM in test [4]. The antagonist ratios result in test [2] is “comparable to clozapine and chloropromazine”.
